Where “and” joins values, the source holds several entries; their conditions need not be identical. Identical values can stand only once. Entries after “also recorded” stand apart in the source; their conditions may differ. Counter-ions that a name gives are not always drawn. Like-named read-outs stand apart in the source and are kept apart here.
Key:
A. baumannii isolates = assay: Susceptibility of A. baumannii isolates by broth microdilution (CLSI methodology); type: cell-based; conditions: for MIC: Acinetobacter baumannii
Experimental: Susceptibility of the A. baumannii isolates to each of the agents was determined by broth microdilution using Clinical and Laboratory Standards Institute (CLSI) methodology at a central laboratory. […] The susceptibility of A. baumannii to other drugs was interpreted according to the standard procedures as defiend by CLSI (Clinical and Laboratory Standards Institute Test Procedures MO2-A10, Vol. 29, No. 1; M07-A8, Vol. 29, No. 2 and/or M100-S19, Vol. 29, No. 3; Jan. 2009).

A. baumannii [1] = assay: Clinical and microbiological outcome at test of cure visit in subjects with nosocomial pneumonia, 3 clinical studies of doripenem; type: in vivo, human
Experimental: Each group received treatment of either doripenem alone or doripenem with concomitant therapy, as noted.
True concomitant therapy was determined by applying the following algorithm: treatment with the second antimicrobial was initiated during Study Days 1-14 and administered on the same study days as doripenem. In addition, the second antimicrobial was given for >1 day of the overlapping period. Concomitant therapy was assessed for the following antimicrobial agents: the fluoroquinolones ciprofloxacin and levofloxacin, colistin and the aminoglycosides amakacin and tobramycin.
Doripenem was administered at either 500 mg Q8H as a 1 hour infusion, 500 mg Q8H as a 4 hour infusion or 1g Q8H as a 4 hour infusion, depending on the specific clinical study, as noted in the Tables below.

A. baumannii [2] = conditions: MICs as high as 16 μg/mL; doripenem 1 gram over a 4 hour infusion; cited from earlier work
[3] = isolate of each patient, doripenem + fluoroquinolone group
[4] = isolate of each patient, doripenem + tobramycin group
[5] = per patient, test of cure visit, doripenem 1 gram or 500 mg every 8 hours, listed as Doripenem Monotherapy, monohydrate
[6] = whole treatment group, test of cure
[7] = A. baumannii isolate of each patient, doripenem monotherapy group, monohydrate
[8] = isolate of each patient, doripenem + amikacin group, monohydrate
[9] = isolate of each patient, doripenem + colistin group, monohydrate
[10] = isolate of each patient, doripenem + tobramycin group, monohydrate
[11] = isolate of each patient, doripenem + amikacin group
[12] = isolate of each patient, doripenem + colistin group

With `C[C@H]1COc2c(N3CCN(C)CC3)c(F)cc3c(=O)c(C(=O)O)cn1c23` [Levofloxacin, levofloxacin] the MIC (A. baumannii isolates; isolate of each patient, doripenem + fluoroquinolone group, read-out: Fluoroquinolone MIC) was > 4 µg/mL, the “Fluoroquinolone MIC” value (A. baumannii isolates; [3]) was >4 µg/mL and the Levofloxacin susceptibility (A. baumannii isolates; [3]) was “(NS) (Non-susceptible (NS) ≧4 μg/mL)”.

For `NC[C@H]1O[C@H](O[C@H]2[C@H](O)[C@@H](O[C@H]3O[C@H](CO)[C@@H](O)[C@H](N)[C@H]3O)[C@H](N)C[C@@H]2N)[C@H](N)C[C@@H]1O` [Tobramycin, tobranycin sulfate], the “Tobramycin MIC” value (A. baumannii isolates; [4]) was 0.5 μg/mL (2×) and 4 μg/mL and 0.25 μg/mL and the Tobramycin susceptibility (A. baumannii isolates; [4]) was “(S) (Tobramycin: Susceptible (S) ≦4 μg/mL)”.

With `C[C@@H](O)[C@H]1C(=O)N2C(C(=O)O)=C(S[C@@H]3CN[C@H](CNS(N)(=O)=O)C3)[C@H](C)[C@H]12` [Doripenem, doripenem monohydrate] the treatment effect (A. baumannii [1]; nosocomial pneumonia due to doripenem-susceptible A. baumannii) was “effective”, the “Clinical Outcome” value (A. baumannii [1]; [5]) was “Cure (7×) and Failure (2×)” and the “Microbiological Outcome” value (A. baumannii [1]; [5]) was “Eradicated; also recorded: Persisted”. For the same molecule, the positive outcome (A. baumannii [1]; [6]) was 77.8%, the “positive outcome (patients with positive outcome / patients in group)” value (A. baumannii [1]; [6]) was 7/9 and the “treatment of pneumonia due to A. baumannii” value (A. baumannii [2]) was “effectively treated”. The “Doripenem MIC” value (A. baumannii isolates; [7]) was 0.25 μg/mL (2×) and 0.12 μg/mL (2×) and 0.5 μg/mL (2×) and >128 μg/mL and 8 μg/mL and 1 μg/mL, the Doripenem susceptibility (A. baumannii isolates; [7]) was “(S) (Susceptible (S) ≦1 μg/mL); also recorded: (NS) (Non-susceptible (NS) >2 μg/mL)” and the MIC (A. baumannii isolates; isolate of each patient, doripenem + fluoroquinolone group, read-out: Doripenem MIC) was > 32 µg/mL. The “Doripenem MIC” value (A. baumannii isolates; [8]) was 64 μg/mL (2×) and 1 μg/mL (2×) and 0.25 μg/mL and 0.12 μg/mL and >32 μg/mL and 16 μg/mL, the Doripenem susceptibility (A. baumannii isolates; [8]) was “(NS) (Non-susceptible (NS) >2 μg/mL); also recorded: (S) (Susceptible (S) ≦1 μg/mL)” and the “Doripenem MIC” value (A. baumannii isolates; [9]) was >32 µg/mL and 32 µg/mL and 1 µg/mL. For the same molecule, the Doripenem susceptibility (A. baumannii isolates; [9]) was “(NS) (Non-susceptible (NS) >2 μg/mL); also recorded: (S) (Susceptible (S) ≦1 μg/mL)”, the Doripenem susceptibility (A. baumannii isolates; [3]) was “(NS) (Non-susceptible (NS) >2 μg/mL)” and the “Doripenem MIC” value (A. baumannii isolates; isolate of each patient, doripenem + fluoroquinolone group, monohydrate) was 32 µg/mL and 16 µg/mL and >32 µg/mL. For the same molecule, the “Doripenem MIC” value (A. baumannii isolates; [10]) was 0.12 μg/mL (3×) and >32 μg/mL and 1 μg/mL and 0.25 μg/mL and the Doripenem susceptibility (A. baumannii isolates; [10]) was “(S) (Susceptible (S) ≦1 μg/mL); also recorded: (NS) (Non-susceptible (NS) >2 μg/mL)”.

With `NCC[C@H](O)C(=O)N[C@@H]1C[C@H](N)[C@@H](O[C@H]2O[C@H](CN)[C@@H](O)[C@H](O)[C@H]2O)[C@H](O)[C@H]1O[C@H]1O[C@H](CO)[C@@H](O)[C@H](N)[C@H]1O` [Amikacin, amikacin] the “Amikacin MIC” value (A. baumannii isolates; [11]) was >64 μg/mL (5×) and 4 μg/mL and 1 μg/mL (2×) and 2 μg/mL and the Amikacin susceptibility (A. baumannii isolates; [11]) was “(NS) (Non-susceptible (NS) ≧32 μg/mL); also recorded: (S) (Amikacin: Susceptible (S) ≦16 μg/mL)”.

For colistin, the “Colistin MIC” value (A. baumannii isolates; [12]) was 1 µg/mL and the Colistin susceptibility (A. baumannii isolates; [12]) was “S (Colistin: Susceptible (S) ≦2 μg/mL)”.

— patent publication US20110281839A1, “COMBINATION THERAPY FOR THE TREATMENT OF BACTERIAL INFECTIONS” (priority 2010, published 2011)
